{
  "source": "patent US8129532B2",
  "about": "“Amino(oligo)thiophene dyes, preparation thereof, and optical methods of use” (The University of Connecticut, priority 2007, dated 2012)",
  "key": {"[1]": {"test": "One-photon fluorescence relative signal change per 100 mV", "conditions": "excitation / long-pass emission (nm) given", "source_text": "The left-most data columns of Table 1 are the absorption and emission maxima for one photon fluorescence in soybean multi-lamellar lipid vesicles used to mimic the membrane environment. The column indicating relative signal change for one-photon fluorescence also lists the excitation light source used and the lower bounds of the long-pass emission detected."}, "[2]": {"system": "NIE-115 mouse neuroblastoma", "test": "Time-dependence (kinetics) of SHG and 2PF signal change after voltage-clamp step", "format": "cell-based", "conditions": "for SHG Kinetics (exponential time constant): time resolution 5 ms", "source_text": "For full details of our non-linear imaging microscope, we refer the reader to previously published descriptions. A. C. Millard, P. J. Campagnola, W. Mohler, A. Lewis, and L. M. Loew, “Second Harmonic Imaging Microscopy,” Meth. Enzymol. 361, 47-69 (2003); Millard, A. C., L. Jin, and L. M. Loew, “Second Harmonic Generation Imaging Microscopy with a High Power Ultrafast Fiber Laser,”Commercial and Biomedical Applications of Ultrafast Lasers. 5714-5716, 92-98 (2005); A. C. Millard, L. Jin, M.-D. Wei, J. P. Wuskell, A. Lewis, and L. M. Loew, “Sensitivity of Second Harmonic Generation from Styryl Dyes to Transmembrane Potential,” Biophys. J. 86, 1169-1176 (2004). Our current microscope combines a Fluoview (Olympus) scan-head and an Axiovert (Zeiss) inverted microscope constructed for multiple imaging methodologies including wide-field, one-photon excitation fluorescence imaging, as well as SHG and 2PF imaging. Our laser sources include a Mira (Coherent) Ti:sapphire laser and a Femtopower (Fianium) fiber laser operating at 1064 nm. Millard, A. C., L. Jin, and L. M. Loew, “Second Harmonic Generation Imaging Microscopy with a High Power Ultrafast Fiber Laser,”Commercial and Biomedical Applications of Ultrafast Lasers. 5714-5716, 92-98 (2005). For excitation, we routinely use an IR-Achroplan (Zeiss) 40×, 0.8 NA water-immersion objective though for shorter wavelengths we also use an A-Plan (Zeiss) 40×, 0.65 NA air objective. Fluorescence is imaged (for linear imaging) or collected (for non-linear imaging) back through the excitation objective, while SHG is collected in the forward, transmitted light direction by a condenser, either 0.8 NA or 0.55 NA (Zeiss). For optimal collection, the numerical aperture of the condenser should be at least 1/√2 of the numerical aperture of the excitation objective (L. Moreaux, O. Sandre, S. Charpak, M. Blanchard-Desce, and J. Mertz, “Coherent Scattering in Multi-Harmonic Light Microscopy,” Biophys. J. 80, 1568-1574 (2001); L. Moreaux, O. Sandre, and J. Mertz. “Membrane Imaging by Second Harmonic Generation Microscopy,” J. Opt. Soc. Am. B. 17, 1685-1694 (2000)), though in practice a condenser of slightly lower numerical aperture will often suffice. Since the wavelength of second harmonic light is precisely half that of the excitation light, the choice of filter for SHG imaging is greatly simplified and the primary concern is the blocking of the excitation light that is also transmitted through the sample as well as fluorescence that is emitted forwards.\nNIE-115 mouse neuroblastoma were cultured in DMEM with 10% fetal bovine serum and 1% antibiotic-antimycotic (Invitrogen, Carlsbad, Calif.) in a 60 mm plastic dish (353002, Becton Dickinson, Franklin Lakes, N.J.). The culture was maintained at 37° C. with 5% CO2 for a period of 48 hours prior to experimentation.\nFor experimentation the growth medium was replaced with 3 mL of Earle's Balanced Salt Solution (EBSS, Sigma, St. Louis, Mo.) with 20 mM HEPES (Merck Biosciences AG, Laufelfingen, Switzerland). The internal buffer, injected into the patch pipette, was a potassium aspartate (140 mM, Sigma, St. Louis, Mo.), sodium chloride (5 mM, Sigma, St. Louis, Mo.) and HEPES (10 mM) solution at a pH of 7.35. The pH was adjusted with potassium hydroxide and hydrochloric acid.\nFor characterizing the voltage-sensitivity of SHG and 2PF, we used a slow (˜0.1 Hz) switching protocol as previously described (A. C. Millard, P. J. Campagnola, W. Mohler, A. Lewis, and L. M. Loew, “Second Harmonic Imaging Microscopy,” Meth. Enzymol. 361, 47-69 (2003); Millard, A. C., L. Jin, and L. M. Loew, “Second Harmonic Generation Imaging Microscopy with a High Power Ultrafast Fiber Laser,” Commercial and Biomedical Applications of Ultrafast Lasers. 5714-5716, 92-98 (2005); A. C. Millard, L. Jin, M.-D. Wei, J. P. Wuskell, A. Lewis, and L. M. Loew, “Sensitivity of Second Harmonic Generation from Styryl Dyes to Transmembrane Potential,” Biophys. J. 86, 1169-1176 (2004)) with a 50 mV step. […]"}},
  "data": [
    {"smiles": "CCCN(CCC)c1ccc(-c2ccc(/C=C/c3cc[n+](CCC[N+](CC)(CC)CC)cc3)s2)s1", "note": "[PY-1286, Di-3-BTEPPTEA]", "values": [
      {"measurement": "1PF Change (ΔF/F-100 mv)", "setting": "[1]", "value": "1.8E−001; 640/>715 ΔF/F-100 mv"},
      {"measurement": "SHG kinetics, in words", "setting": "[2]", "value": "slower kinetic response"},
      {"measurement": "SHG Kinetics (exponential time constant)", "setting": "[2]", "value": "27 ± 1", "unit": "ms"}
    ]},
    {"smiles": "CCN(CC)c1ccc(-c2ccc(/C=C/c3cc[n+](CCC[N+](CC)(CC)CC)cc3)s2)s1", "note": "[PY-1261, Di-2-BTEPPTEA]", "values": [
      {"measurement": "1PF Change (ΔF/F-100 mv)", "setting": "[1]", "value": "5.0E−002; 625/>715 ΔF/F-100 mv"},
      {"measurement": "SHG kinetics, in words", "setting": "[2]", "value": "instantaneous"}
    ]},
    {"smiles": "CCCCN(CCCC)c1ccc(-c2ccc(/C=C/c3cc[n+](CCC[N+](CC)(CC)CC)cc3)s2)s1", "note": "[PY-1266, Di-4-BTEPPTEA]", "values": [
      {"measurement": "1PF Change (ΔF/F-100 mv)", "setting": "[1]", "value": "1.0E−001; 635/>715 ΔF/F-100 mv"},
      {"measurement": "SHG kinetics, in words", "setting": "[2]", "value": "slower kinetic response"},
      {"measurement": "SHG Kinetics (exponential time constant)", "setting": "[2]", "value": "23 ± 2", "unit": "ms"}
    ]}
  ]
}
